Measurements published in patent US20240050409A1, “Methods and Compositions for Treating Psychotic Disorders” (SOUND PHARMACEUTICALS INCORPORATED, priority 2014, published 2024).
“Also recorded” adds a separate entry of the source.

Test system: perineuronal nets (PNN) in the PFC of NVHL rats
Experiment: WFA staining of perineuronal nets (PNN) around PVI in PFC of NVHL rats
Format: in vivo, Sprague-Dawley rats
Conditions: adult NVHL rats, juvenile treatment
From the text: To determine the types of interneurons expressing oxidative stress in NVHL rats, 8-oxo-dG with PV, calbindin (CB) and calretinin (CR) was co-labeled. […] About 50% of PVI were co-labeled with 8-oxo-dG, indicating oxidative stress is pervasive in this cell population. A marker of PVI maturation is Wisteria Floribunda agglutinin (WFA), a lectin that recognizes the perineuronal nets (PNN) enwrapping mature cortical PVI. […] PVI may be highly exposed to increased oxidative stress because they make up the majority of fast-spiking interneurons and their high energy metabolism may generate more reactive oxygen species than non-fast spiking neurons.
Antioxidant pretreatment regimen: NAC (BioAdvantexPharma, Mississauga, Ontario, Canada) was administered in the drinking water at 900 mg/l. NAC treatment started at P5 or at P35, and previous work in mice has shown that NAC consumed by the dam is transmitted to the pups through her milk (das Neves Duarte et al., 2012). NAC treatment ended at P50. Fresh solutions were prepared every 2-3 days. Ebselen (Sound Pharmaceuticals Inc., Seattle, WA) was administered i.p. 5 days a week starting at P35 until the day of PPI testing (P60). Stock ebselen solution (20 mg/ml DMSO, frozen aliquots) was diluted 1:5 in sterile water and administered at a dose of 10 mg/kg. Control animals received an equivalent concentration of DMSO diluted 1:5 in water. […]

CC(=O)N[C@@H](CS)C(=O)O [NAC, N-acetyl cysteine]
effect on reduced WFA staining / WFA-positive PVI (PNN): restored; also recorded: prevented
